Test system: pulmonary lesions
Test: Tumor-to-background ratio (TBR) during OTL38-based intraoperative molecular imaging (IMI)-guided lung resection
Assay type: in vivo, patients
Conditions: OTL38 0.025 mg/kg infused up to 24 h prior to surgery
Description: Appropriate authorization was obtained from the University of Pennsylvania Perelman School of Medicine Institutional Review Board prior to data collection. Data was retrospectively analyzed from a prospectively collected database. Surgical procedures were performed by the surgeons at the Department of Thoracic Surgery at the Hospital of the University of Pennsylvania. A total of 279 patients were included in the study. All patients enrolled in the study presented with suspicious pulmonary nodules in conjunction with the recommendations from the Fleischner Society Guidelines for Pulmonary Nodules based on high-quality 1 mm slice thickness CT scanning. Based on institutional practice patterns, pre-operative tissue sampling and diagnosis was not mandatory. Selected patients underwent appropriate pre-operative clearance and metastatic disease work up prior to operative scheduling with video-assisted thoracoscopic surgical (VATS) lobectomy being the procedure of choice.
Analyzed patients underwent infusion of the study drug OTL38 (0.025 mg/kg) up to 24 h prior to surgery. OTL38 (C61H63N9Na4O17S4, MW: 1414.42) is a folate analog conjugated to the NIR dye, S0456. OTL38 excites at 774-776 nm and emits at 794-796 nm. […] The iridium system utilizes an excitation laser with a wavelength of 805 nm, with fluorescence detection based on a bandpass filter selective to light ranging from 825 to 850 nm. […]
Postoperatively, all the IMI images were uploaded to the deidentified secure database for analysis. Mean fluorescence intensity of the tumors was calculated from ImageJ (from National Institutes of Health) software with minimum 1000 pixels being included in the analysis. To minimize inter-observer bias, a protocol was established where the in situ and ex vivo TBRs were calculated by three blinded independent observers. Results were re-calculated by different observers if at least two blinded observer TBR measurements were not correlating (TBR values ±0.2 from each other). TBR results were then compared to final pathological diagnosis and analyzed for their correlation with in situ fluorescence. […]

CC1(C)C(/C=C/C2=C(Oc3ccc(C[C@H](NC(=O)c4ccc(NCc5cnc6nc(N)[nH]c(=O)c6n5)cc4)C(=O)[O-])cc3)C(=C/C=C3\N(CCCCS(=O)(=O)[O-])c4ccc(S(=O)(=O)[O-])cc4C3(C)C)/CCC2)=[N+](CCCCS(=O)(=O)[O-])c2ccc(S(=O)(=O)[O-])cc21.[H+].[H+].[H+].[H+] [OTL38]
In situ TBR, mean (entire cohort of 279 patients, Iridium NIR imaging, ImageJ): 2.84 | Ex vivo TBR bisected tumor, mean (entire cohort, bisected specimen, 0.025 mg/kg): 4 | Ex vivo TBR (back table), mean (entire cohort, resected specimen): 3.09

— US20250057426A1, “COMPUTER-IMPLEMENTED METHODS AND ASSOCIATED SYSTEMS FOR DETECTING MALIGNANCY” (The Trustees of the University of Pennsylvania, priority 2021, published 2025)
